Publication doi:10.1101/2023.11.24.568596v1 (biorxiv, 2023)

What was measured:
Details in all cases: binder
MST4 = MST4 (Homo sapiens, UniProt Q9P289)
MST2 = target: T1, MST2 (Homo sapiens, UniProt Q13188)
T1 sequence (Q13188 1-491): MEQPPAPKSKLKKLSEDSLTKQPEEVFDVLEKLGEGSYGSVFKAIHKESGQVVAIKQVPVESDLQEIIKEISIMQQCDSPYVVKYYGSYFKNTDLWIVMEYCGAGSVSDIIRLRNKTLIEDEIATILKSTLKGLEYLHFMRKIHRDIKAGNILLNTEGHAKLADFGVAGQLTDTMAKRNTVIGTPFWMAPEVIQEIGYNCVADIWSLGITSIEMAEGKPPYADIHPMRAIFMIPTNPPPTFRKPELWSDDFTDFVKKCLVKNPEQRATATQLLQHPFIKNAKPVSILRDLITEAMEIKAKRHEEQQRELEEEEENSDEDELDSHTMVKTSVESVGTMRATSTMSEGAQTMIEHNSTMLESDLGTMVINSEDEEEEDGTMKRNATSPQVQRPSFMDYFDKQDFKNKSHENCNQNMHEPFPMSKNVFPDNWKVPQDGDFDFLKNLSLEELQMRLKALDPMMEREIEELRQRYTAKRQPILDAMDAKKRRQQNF

MAP2K7 = target: T2, MAP2K7 (Homo sapiens, UniProt O14733)
T2 sequence (O14733 1-419): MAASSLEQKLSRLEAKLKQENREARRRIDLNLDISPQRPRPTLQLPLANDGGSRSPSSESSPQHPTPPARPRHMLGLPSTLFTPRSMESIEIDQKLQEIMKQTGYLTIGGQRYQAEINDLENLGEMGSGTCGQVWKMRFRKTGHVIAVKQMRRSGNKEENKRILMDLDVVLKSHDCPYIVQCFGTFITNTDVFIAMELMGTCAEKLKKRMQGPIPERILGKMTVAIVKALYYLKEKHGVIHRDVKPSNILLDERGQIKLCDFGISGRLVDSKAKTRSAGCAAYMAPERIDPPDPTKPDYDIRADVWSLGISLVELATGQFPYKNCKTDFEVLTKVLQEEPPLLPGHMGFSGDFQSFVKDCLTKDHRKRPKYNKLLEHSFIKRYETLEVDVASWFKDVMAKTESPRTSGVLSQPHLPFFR

FECH = target: T3, FECH (Homo sapiens, UniProt P22830)
T3 sequence (P22830 1-423): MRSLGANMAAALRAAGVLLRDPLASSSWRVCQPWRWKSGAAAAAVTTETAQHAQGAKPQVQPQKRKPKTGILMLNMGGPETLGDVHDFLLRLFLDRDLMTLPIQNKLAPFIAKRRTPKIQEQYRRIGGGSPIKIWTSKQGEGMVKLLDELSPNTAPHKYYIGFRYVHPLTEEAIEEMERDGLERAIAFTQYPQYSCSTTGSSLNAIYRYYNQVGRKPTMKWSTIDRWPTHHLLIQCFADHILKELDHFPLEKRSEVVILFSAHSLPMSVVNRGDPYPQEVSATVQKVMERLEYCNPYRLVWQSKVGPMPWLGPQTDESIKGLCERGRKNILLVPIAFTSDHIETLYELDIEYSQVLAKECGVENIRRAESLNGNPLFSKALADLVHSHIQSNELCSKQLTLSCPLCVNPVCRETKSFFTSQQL

PAK1 = PAK1 (Homo sapiens, UniProt Q13153)
Sequence of PAK1 (Q13153 whole entry): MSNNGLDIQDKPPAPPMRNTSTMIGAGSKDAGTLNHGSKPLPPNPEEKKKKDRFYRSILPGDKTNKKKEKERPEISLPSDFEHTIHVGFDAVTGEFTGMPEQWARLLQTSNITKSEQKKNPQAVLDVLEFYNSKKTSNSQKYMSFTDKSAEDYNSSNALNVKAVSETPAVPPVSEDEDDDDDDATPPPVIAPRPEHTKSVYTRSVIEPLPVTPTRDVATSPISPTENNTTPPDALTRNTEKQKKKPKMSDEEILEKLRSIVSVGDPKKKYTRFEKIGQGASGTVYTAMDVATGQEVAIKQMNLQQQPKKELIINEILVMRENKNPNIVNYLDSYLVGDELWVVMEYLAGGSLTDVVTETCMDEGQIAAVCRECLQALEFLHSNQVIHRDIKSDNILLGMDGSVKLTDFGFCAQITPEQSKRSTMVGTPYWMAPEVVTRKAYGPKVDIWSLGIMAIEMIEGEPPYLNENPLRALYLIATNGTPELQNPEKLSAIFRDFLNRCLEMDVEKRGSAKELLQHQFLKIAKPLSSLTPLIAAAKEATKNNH

Sequence of MST4 (Q9P289 whole entry): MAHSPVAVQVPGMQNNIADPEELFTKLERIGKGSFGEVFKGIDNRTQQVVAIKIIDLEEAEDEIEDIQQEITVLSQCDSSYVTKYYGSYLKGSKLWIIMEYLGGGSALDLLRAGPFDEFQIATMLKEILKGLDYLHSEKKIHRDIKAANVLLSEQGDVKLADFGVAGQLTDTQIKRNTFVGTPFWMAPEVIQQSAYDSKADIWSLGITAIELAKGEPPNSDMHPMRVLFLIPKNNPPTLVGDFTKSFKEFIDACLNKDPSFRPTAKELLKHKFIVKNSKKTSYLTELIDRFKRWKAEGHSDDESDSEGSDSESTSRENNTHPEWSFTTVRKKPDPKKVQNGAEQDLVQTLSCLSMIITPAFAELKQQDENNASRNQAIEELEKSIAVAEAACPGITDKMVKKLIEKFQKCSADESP

| dTm MST4 (MST4) [°C] | dTm MST2 (MST2) [°C] | dTm PAK1 (PAK1) [°C] | Structure (SMILES) | further results |
| --- | --- | --- | --- | --- |
| 7.8 | 8.0 | 8.6 | CNc1ncc2cc(-c3ccc(-c4cccc(C)n4)cc3Cl)c(=O)n(CCC3CCNCC3)c2n1 [compound 22, 6-(2-Chloro-4-(6-methylpyridin-2-yl)phenyl)-2-(methylamino)-8-(2-(piperidin-4-yl)ethyl)pyrido[2,3-d]pyrimidin-7(8H)-one] | ΔTm 22 (MAP2K7): 4.3 °C; ΔTm 22 (FECH): -0.3 °C |
| 11.4 | 7.9 | 6.5 | CNc1ncc2cc(-c3ccc(-c4cccc(C)n4)cc3Cl)c(=O)n(CCCCN)c2n1 [compound 20, MRLW5] |  |
|  |  |  | Cc1cccc(-c2ccc(-c3cc4cnc(NCCCc5ccc(N)cc5)nc4n(CCCCN)c3=O)c(Cl)c2)n1 [compound 25, 8-(4-Aminobutyl)-2-((3-(4-aminophenyl)propyl)amino)-6-(2-chloro-4-(6-methylpyridin-2-yl)phenyl)pyrido[2,3-d]pyrimidin-7(8H)-one] | ΔTm 25 (MAP2K7): 6.7 °C; ΔTm 25 (FECH): 3.0 °C |
|  |  |  | Cc1cccc(-c2ccc(-c3cc4cnc(NCCCN5CCOCC5)nc4n(CCCCN)c3=O)c(Cl)c2)n1 [compound 26, MR26] | ΔTm MR26 (26) (MAP2K7): 3.1 °C; ΔTm MR26 (26) (FECH): 0.3 °C |
| 8.2 | 10.8 | 8.4 | CNc1ncc2cc(-c3ccc(-c4cccc(C)n4)cc3Cl)c(=O)n(C[C@H]3CC[C@H](N)CC3)c2n1 [compound 23, 23] | ΔTm 23 (MAP2K7): 7.1 °C |
|  |  |  | Cc1cccc(-c2ccc(-c3cc4cnc(NC(CO)CO)nc4n(CCCCN)c3=O)c(Cl)c2)n1 [compound 24, 8-(4-Aminobutyl)-6-(2-chloro-4-(6-methylpyridin-2-yl)phenyl)-2-((1,3-dihydroxypropan-2-yl)amino)pyrido[2,3-d]pyrimidin-7(8H)-one] | ΔTm MR24 (24) (MAP2K7): 3.0 °C; ΔTm MR24 (24) (FECH): -0.5 °C |
